Measured values reported in US20260183303A1, “PDK1 REGULATORY COMPOUND AND COMPOSITION CONTAINING THE SAME” (PROVIBIO CO., LTD., priority 2024, published 2026).
Where a name gives a salt, the structure may show the parent alone.

Experiments:
[1] = tested on: Human B Lymphocyte cell line, SU-DHL-8; assay: Relative cell viability (CCK-8), SU-DHL-8; type: cell-based; details: for viability at 1 µM / viability at 10 µM / viability at 30 µM / viability at 50 µM: Homo sapiens, SU-DHL-8, 48 h; for viability at 1 µM: read-out: Relative cell viability (%), SU-DHL-8, 1 μM, untreated cells (DMSO) = 100%; for viability at 10 µM: read-out: Relative cell viability (%), SU-DHL-8, 10 μM, untreated cells (DMSO) = 100%; for viability at 30 µM: read-out: Relative cell viability (%), SU-DHL-8, 30 μM, untreated cells (DMSO) = 100%; for viability at 50 µM: read-out: Relative cell viability (%), SU-DHL-8, 50 μM, untreated cells (DMSO) = 100%; for Relative cell viability (%): 48 hours, untreated cells (DMSO) = 100%
Procedure: Human-derived B lymphoma cell line SU-DHL-8 (Cat. #CRL-2961) purchased from ATCC was cultured in RPMI-1640 medium containing […], 100 U/mL penicillin, and 100 μg/mL streptomycin.
The cell culture medium was then harvested, centrifuged at 1,300 rpm for 5 minutes, and the supernatant was removed. The cells were resuspended in the same medium and dispensed into a 96-well plate (Costar 96-well cell culture plate, Corning) at 90 μL per well, resulting in the conditions specified in Table 5.
Then, 10 μL of CCK-8 was added to each well, and the plates were incubated again at 37° C. in a 5% CO2 incubator for 4 hours.
In other words, when the survival rate of untreated cells (DMSO) is set at 100%, the relative cell survival rate in each group treated with the drug at different concentrations is indicated.

[2] = tested on: T cells isolated from mouse spleens; assay: T cell proliferation inhibition (CFSE flow cytometry, anti-CD3/anti-CD28 activation); type: cell-based, C57BL/6 mice; details: mouse spleen T cells, CD3/CD28 activated, cultured three days; for inhibition at 0.01 µM / inhibition at 0.1 µM / inhibition at 1 µM / inhibition at 10 µM / inhibition at 30 µM / inhibition at 50 µM: Mus musculus, T-cell, 72 h, read-out: Proliferation inhibition rate (%)
Procedure: To verify the T cell proliferation inhibitory effect of the compounds according to the present invention, the following experiment was performed based on flow cytometry analysis using carboxyfluorescein diacetate succinimidyl ester (CFSE), a fluorescent dye that binds to intracellular molecules via covalent bonds.
Spleens were extracted from 7-week-old C57BL/6 mice, ground, and then separated into single cells using a strainer ([…], SPL). Red blood cells were removed using ACK (Ammonium-Chloride-Potassium) lysis buffer to isolate white blood cells.
Finally, using a MACS Magnetic Stand and LS column, T cells were isolated from the spleen.
The T cells isolated from the spleen were resuspended in 1 mL of free medium (RPMI-1640+200 U/mL penicillin+200 μg/mL streptomycin), and 0.3 μL of CFSE (10 mM) was added. The mixture was incubated at 37° C. for 5 minutes.
Free medium (10 mL) was added to stop the reaction, and the cells were centrifuged to obtain the cell pellet.
RPMI 1640 medium containing 10% FBS, 100 U/mL penicillin, 100 μg/mL streptomycin, and resuspended the cells. The cells were then seeded into a 96-well plate at a density of 2×10^5 cells per well and activated with CD3 and CD28 antibodies ([…]) to activate T cells.
The compound diluted in DMSO was added at concentrations of 10 nM, 100 nM, 1 μM, […], 30 μM, and 50 µM, with three wells per concentration, and cultured at 37° C. and 5% CO2 for three days. The cells were then analyzed using a FACS Canto instrument.
The proliferation inhibition rate (%) was calculated using the following formula: […]

SMILES | viability at 1 µM [1] [%] | viability at 10 µM [1] [%] | viability at 30 µM [1] [%] | viability at 50 µM [1] [%] | inhibition at 0.01 µM ([2]; 10 nM) [%] | inhibition at 0.1 µM ([2]; 100 nM) [%] | inhibition at 1 µM ([2]; 1 μM) [%] | inhibition at 10 µM ([2]; 10 μM) [%] | inhibition at 30 µM ([2]; 30 μM) [%] | inhibition at 50 µM ([2]; 50 μM) [%] | Relative cell viability (%) ([1]; SU-DHL-8, 1 μM) | Proliferation inhibition rate (%) ([2]; 100 nM) | Proliferation inhibition rate (%) ([2]; 1 μM) | Proliferation inhibition rate (%) ([2]; 10 μM) | Proliferation inhibition rate (%) ([2]; 30 μM) | Proliferation inhibition rate (%) ([2]; 50 μM) | Relative cell viability (%) ([1]; SU-DHL-8, 30 μM) | Relative cell viability (%) ([1]; SU-DHL-8, 50 μM) | Proliferation inhibition rate (%) ([2]; 10 nM) | Relative cell viability (%) ([1]; SU-DHL-8, 10 μM)
CC(C)(C)OC(=O)N[C@H]1CCN(CCCCCCCCCCCCNC(=O)c2cccnc2N)C1 [Compound 49, tert-Butyl(S)-(1-(12-(2-aminonicotinamido)dodecyl)pyrrolidin-3-yl)carbamate] | 8.93 | 8.02 | 7.48 | 4.09 | -22.6 | 100 | 100 | 100 | 100 | 100 | – | – | – | – | – | – | – | – | – | –
Cl.Nc1ncccc1C(=O)NCCCCCCCCCCCCN1CC[C@H](N)C1 [Compound 50, (S)-2-Amino-N-(12-(3-aminopyrrolidin-1-yl)dodecyl) nicotinamide hydrochloride] | – | – | – | – | – | – | – | – | – | – | 9.20 | 100.00 | 100.00 | 100.00 | 100.00 | 100.00 | – | – | – | –
Cc1ccc(OC2CCN(CCCCCCCCCCCCNC(=O)c3cccnc3N)CC2)cc1 [Compound 51, 2-Amino-N-(12-(4-(p-tolyloxy)piperidin-1-yl)dodecyl) nicotinamide] | – | – | – | – | – | – | – | – | – | – | – | – | 100.00 | 100.00 | 100.00 | 100.00 | 0.89 | 0.48 | 0.77 | –
Cc1ccc(C2CCN(CCCCCCCCCCCCNC(=O)c3cccnc3N)CC2)cc1 [Compound 55, 2-Amino-N-(12-(4-(p-tolyl)piperidin-1-yl)dodecyl) nicotinamide] | – | – | – | – | – | – | – | – | – | – | – | 100.00 | 100.00 | 100.00 | 100.00 | 100.00 | 1.10 | 0.97 | – | –
O=C(NCCCCCCCCCCCCN1CCNCC1)c1ccc(-c2ccccc2)o1 [Compound 90, 5-Phenyl-N-(12-(piperazin-1-yl)dodecyl)furan-2-carboxamide hydrochloride] | 7.19 | 5.94 | 2.48 | 1.94 | -8.27 | -2.03 | 66.2 | 100 | 100 | 100 | – | – | – | – | – | – | – | – | – | –
CN1CCN(C2CCN(CCCCCCCCCCCCNC(=O)c3cccnc3N)CC2)CC1 [Compound 124, 2-Amino-N-(12-(4-(4-methylpiperazin-1-yl)piperidin-1-yl)dodecyl) nicotinamide] | – | – | – | – | – | – | – | – | – | – | 30.43 | 20.00 | 30.00 | 100.00 | 100.00 | 100.00 | 32.10 | 31.72 | 0.00 | 30.70
